According to patent US8476255B2, “Histone deacetylase inhibitors” (Orchid Chemicals & Pharmaceuticals Limited, priority 2007, dated 2013):

Experiments:
U251 (glioma) cells = assay: Anti-cancer screen (MTT), U251; format: cell-based; details: Homo sapiens, U-251, U251, 48 hours, MTT
Summary of the method: (§1)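 An MTT readout (absorbance at 570 nm) measured growth after 48 h of treatment at five final concentrations, 0.01–100 μM, each in triplicate. A T0 plate read at the time of dosing served as baseline. Cultures were in DMEM plus 10% FBS and pre-incubated 24 h at 37° C., with SAHA as the reference drug.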

p21 = p21 induction, sandwich ELISA in HCT116 lysate; format: cell-based; details: HCT116, 18 hours
Experimental: (§2) Acetylated histone (H3), acetylated Tubulin and p21 levels were detected in cell lysate by sandwich ELISA method (Cell Signaling Technology, USA, Cat No: 7232, 7204 & 7167 respectively) by following manufacturer's instructions. Briefly, colon cancer cells (HCT116. 10,000/well) were incubated with test compound (1 and 10 μM) or medium (control) for 4 hours at 37° C. in CO2 incubator. The incubation lasted 18 hours for p21 induction. After incubation, cell lysates were prepared in cell lysis buffer by sonication on ice. The lysates were collected after centrifugation and subjected to ELISA test procedure. 100 μL of each diluted cell lysate in dilution buffer (1:1) was added to appropriate capture antibody coated microwells and incubated overnight at 4° C. After washing, 100 μL of detection antibody was added for 1 hour at 37° C. After second washing, 100 μL of HRP-linked secondary antibody was added for 30 min at 37° C. Finally, after appropriate washing, 100 μL of TMB substrate was added for 10 min at 37° C. followed by 100 μL of stop solution. The absorbance of individual wells was read using a spectrophotometer at 450 nm (A450).

Acetylated histone (H3) = assay: Histone (H3) acetylation, sandwich ELISA in HCT116 lysate; format: cell-based; details: HCT116, 4 hours
Experimental: as §2

[1] = tested on: HDAC (Mouse Liver Extract); assay: HDAC inhibition assay using Boc-Lys(Ac)-AMC substrate; format: biochemical; details: mouse liver enzyme
Summary of the method: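 Released AMC measured at 360 nm excitation, 460 nm emission after 15-30 min trypsin development at 37° C. Preceding deacetylation: mouse liver extract with acetylated-lysine AMC substrate, 30 min at 37° C after 5-min preincubation; blanks were buffer alone and substrate alone.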

[2] = tested on: NCIH460, HCT116 and U251 cells; assay: Anti-cancer screen, mean GI50 over cell lines; format: cell-based; details: mean over cell lines; read-out: Cell growth inhibition Mean GI50
Summary of the method: as §1

NCIH460 (lung) cells = assay: Anti-cancer screen (MTT), NCIH460; format: cell-based; details: Homo sapiens, NCI-H460, NCIH460, 48 hours, MTT
Summary of the method: as §1

acetylated Tubulin = assay: Tubulin acetylation, sandwich ELISA in HCT116 lysate; format: cell-based; details: HCT116, 4 hours
Experimental: as §2

HCT 116 (colon) cells = assay: Anti-cancer screen (MTT), HCT 116; format: cell-based; details: Homo sapiens, HCT-116, HCT116, 48 hours, MTT
Summary of the method: as §1

recombinant HDAC1 enzyme = recombinant HDAC1 enzyme (Homo sapiens (Human), UniProt Q13547); assay: HDAC1 inhibitory activity (isoform selectivity); format: biochemical; details: read-out: HDAC1 inhibition (IC50)
Chain of recombinant HDAC1 enzyme (Q13547 whole entry, canonical isoform): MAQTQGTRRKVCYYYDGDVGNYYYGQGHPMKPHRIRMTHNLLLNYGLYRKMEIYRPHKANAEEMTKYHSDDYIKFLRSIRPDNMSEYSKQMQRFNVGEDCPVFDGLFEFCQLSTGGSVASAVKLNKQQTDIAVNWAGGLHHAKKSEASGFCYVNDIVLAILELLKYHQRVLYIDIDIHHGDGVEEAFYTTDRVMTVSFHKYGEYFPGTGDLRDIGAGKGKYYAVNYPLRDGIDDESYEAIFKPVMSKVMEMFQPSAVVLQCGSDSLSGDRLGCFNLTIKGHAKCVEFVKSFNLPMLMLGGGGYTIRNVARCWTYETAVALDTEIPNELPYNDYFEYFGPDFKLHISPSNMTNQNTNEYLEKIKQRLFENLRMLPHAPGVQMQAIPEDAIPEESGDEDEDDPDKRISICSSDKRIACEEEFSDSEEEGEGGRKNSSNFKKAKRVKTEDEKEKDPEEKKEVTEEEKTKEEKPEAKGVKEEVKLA
Experimental: The assay was carried out, as previously described using recombinant HDAC1 enzyme (BIOMOL, USA) and following manufacturer's instructions.

Q: `COc1ccc(/C=C(/C(=O)NCc2ccc(C(=O)Nc3ccccc3N)cc2)c2ccccc2)cc1OC` [Compound 31, N-(2-Aminophenyl)-4-((3-(3,4-dimethoxyphenyl)-2-phenylacrylamido)methyl)benzamide] was tested. Which GI50 (U251 (glioma) cells; read-out: Cell growth inhibition U251 (Glioma) GI50) did it give?
A: 3.8 µM

Q: And the LC50 (concentration giving 50% net cell kill relative to the time-zero cell count) (U251 (glioma) cells; read-out: Cell growth inhibition U251 (Glioma) LC50)?
A: > 100 µM

Q: And the IC (TGI) (U251 (glioma) cells; read-out: Cell growth inhibition U251 (Glioma) TGI)?
A: 50 µM

Q: And the “P21 induction (Fold increase)” value (p21; 1 μM)?
A: 1.2 Fold increase

Q: What about the “P21 induction (Fold increase)” value (p21; 10 μM) of the same compound?
A: 2.8 Fold increase

Q: And the “H3 acetylation (Fold increase)” value (Acetylated histone (H3); 1 μM)?
A: 0.9 Fold increase

Q: And the “H3 acetylation (Fold increase)” value (Acetylated histone (H3); 10 μM)?
A: 1.7 Fold increase

Q: What about the “HDAC inhibition % (1 μM)” value ([1]; 1 μM) of the same compound?
A: 36.5%

Q: And the “HDAC inhibition % (10 μM)” value ([1]; 10 μM)?
A: 65.5%

Q: What about the IC50 [1] of the same compound?
A: 7.9 µM

Q: And the GI50 [2]?
A: 1.6 µM

Q: What about the GI50 (NCIH460 (lung) cells; read-out: Cell growth inhibition NCIH460 (Lung) GI50) of the same compound?
A: 1.1 µM

Q: What about the LC50 (NCIH460 (lung) cells; read-out: Cell growth inhibition NCIH460 (Lung) LC50) of the same compound?
A: > 100 µM

Q: And the IC (TGI) (NCIH460 (lung) cells; read-out: Cell growth inhibition NCIH460 (Lung) TGI)?
A: > 100 µM

Q: And the “Tubulin acetylation (Fold increase)” value (acetylated Tubulin; 1 μM)?
A: 1.2 Fold increase

Q: And the “Tubulin acetylation (Fold increase)” value (acetylated Tubulin; 10 μM)?
A: 2.1 Fold increase

Q: What about the GI50 (HCT 116 (colon) cells; read-out: Cell growth inhibition HCT116 (Colon) GI50) of the same compound?
A: 0.02 µM

Q: What about the CC50 (HCT 116 (colon) cells; read-out: Cell growth inhibition HCT116 (Colon) LC50) of the same compound?
A: > 100 µM

Q: And the IC (TGI) (HCT 116 (colon) cells; read-out: Cell growth inhibition HCT116 (Colon) TGI)?
A: 40 µM

Q: What about the IC50 (recombinant HDAC1 enzyme) of the same compound?
A: 0.054 µM
